Source: ChEMBL document CHEMBL1126167, “Synthesis and evaluation of photoaffinity probes directed at lanosterol 14-demethylase (P-45014DM)” (Bioorg Med Chem Lett, 1992)

How the values were obtained:
[1] = molecular target: T1, Lanosterol 14-alpha demethylase (Homo sapiens, UniProt Q16850); test: Binding affinity for cytochrome P450 14DM; set-up: species or system Saccharomyces cerevisiae
T1 sequence (Q16850 whole entry): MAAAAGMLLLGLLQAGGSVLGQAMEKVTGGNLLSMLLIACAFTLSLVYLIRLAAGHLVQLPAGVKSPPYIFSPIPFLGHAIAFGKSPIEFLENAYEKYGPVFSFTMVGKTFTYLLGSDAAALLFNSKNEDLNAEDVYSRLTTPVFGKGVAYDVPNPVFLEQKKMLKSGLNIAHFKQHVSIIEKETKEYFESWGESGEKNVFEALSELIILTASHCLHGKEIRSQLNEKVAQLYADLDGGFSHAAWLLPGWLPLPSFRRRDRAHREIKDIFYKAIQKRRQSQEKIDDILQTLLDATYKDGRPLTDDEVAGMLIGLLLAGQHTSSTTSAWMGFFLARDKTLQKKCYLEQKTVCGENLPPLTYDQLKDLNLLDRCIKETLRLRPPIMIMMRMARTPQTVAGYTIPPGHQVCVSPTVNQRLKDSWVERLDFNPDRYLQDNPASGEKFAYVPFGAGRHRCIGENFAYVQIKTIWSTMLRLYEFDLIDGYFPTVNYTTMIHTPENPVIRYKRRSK

[2] = Specific activity was determined; assay type: functional; settings: tested as the 3H-labelled form
P45014DM = test: Photolysis after effective incorporation into P45014DM at 313 nm in phosphate buffer; assay type: ADME; set-up: dose or concentration left out as unconfirmed; settings: compound incorporated into P45014DM
[3] = Photolysis at 264 nm in phosphate buffer; assay type: ADME; set-up: dose or concentration left out as unconfirmed

Compound | Kd [1] [µM] | Activity [2] [mCi/M] | half-life (P45014DM) [min] | half-life [3] [min]
[N-]=[N+]=Nc1ccc(C(O)Cn2ccnc2)cc1 (configuration not stated) | 1.4 | 26.4 | – | –
[N-]=[N+]=Nc1ccc(C(=O)Cn2ccnc2)cc1 | 18 | – | – | –
[3H]C(O)(Cn1ccnc1)c1ccc(N=[N+]=[N-])cc1 (configuration not stated) | – | – | 45 | 2.5
[N-]=[N+]=Nc1ccc(Cn2ccnc2)cc1 | 15 | – | – | –
[N-]=[N+]=Nc1ccc(-n2ccnc2)cc1 | 25 | – | – | –
